In patent US9708314B2, “Heterocyclic amide compound” (NISSAN CHEMICAL INDUSTRIES, LTD., priority 2013, dated 2017):

How the values were obtained:
[1] = tested on: directly sowed Oryza sativa; test: Test Example 4: effect on crop by application to foliage (diluvial soil, plastic box); assay type: in vivo; conditions: for d (directly sowed Oryza sativa) effect on crop: application herbicide amount 320 g/ha
Outline: (§1)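 Greenhouse plants (25° C. to 30° C., 14 d, diluvial soil) receive a foliar spray of water-diluted emulsifiable formulation at defined g/ha. Grading after 3 weeks uses a six-step herbicidal-ratio scale, with 4 covering 70% to <90% and 1 covering 5% to <20%.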

[2] = tested on: Beta vulgaris ssp. vulgaris; test: as above; assay type: in vivo; conditions: for f (Beta vulgaris ssp. vulgaris) effect on crop: application herbicide amount 320 g/ha
Outline: as §1

Glycine max = test: as above; assay type: in vivo; conditions: for c (Glycine max) effect on crop: application herbicide amount 320 g/ha
Outline: as §1

Brassica campestris L. = test: as above; assay type: in vivo; conditions: for g (Brassica campestris L.) effect on crop: application herbicide amount 320 g/ha
Outline: as §1

Stellaria media = test: Test Example 4: herbicidal effect by application to foliage (diluvial soil, plastic box); assay type: in vivo; conditions: for P (Stellaria media) herbicidal effect: application herbicide amount 320 g/ha
Outline: as §1

Amaranthus retroflexus = test: as above; assay type: in vivo; conditions: for N (Amaranthus retroflexus) herbicidal effect: application herbicide amount 320 g/ha
Outline: as §1

[3] = tested on: transplanted Oryza sativa; test: Test Example 1: effect on crop, application before weed generation in submerged conditions; assay type: in vivo; conditions: Seventeenth Table
Outline: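 Water-diluted emulsion formulation is applied onto flood water (4 cm deep) covering alluvial soil on the day weed seeds are sown, after transplanting 2.5 leaf stage rice. Rates are expressed per hectare. Injury or control is graded 0–5 three weeks later.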

[4] = Application herbicide amount 320 g/ha
[5] = application to foliage, 141 g/ha

SMILES | d (directly sowed Oryza sativa) effect on crop ([1]; application to foliage) | f (Beta vulgaris ssp. vulgaris) effect on crop ([2]; application to foliage) | c (Glycine max) effect on crop (Glycine max; application to foliage) | g (Brassica campestris L.) effect on crop (Brassica campestris L.; application to foliage) | P (Stellaria media) herbicidal effect (Stellaria media; application to foliage) | N (Amaranthus retroflexus) herbicidal effect (Amaranthus retroflexus; application to foliage) | a: transplanted Oryza sativa (effect on crop grade) [3, 4] | further results
Cc1nnc(NC(=O)c2ccc(C(F)(F)F)n3c(C(C)C)nnc23)o1 [1-004, 3-Isopropyl-N-(5-methyl-1,3,4-oxadiazol-2-yl)-5-(trifluoromethyl)-[1,2,4]triazolo[4,3-a]pyridine-8-carboxamide] | 4 (Herbicidal ratio of 70% or more and less than 90%) | 4 (Herbicidal ratio of 70% or more and less than 90%) | 4 (Herbicidal ratio of 70% or more and less than 90%) | 3 (Herbicidal ratio of 40% or more and less than 70%) | 5 (Herbicidal ratio of 90% or more (almost completely withered)) | 4 (Herbicidal ratio of 70% or more and less than 90%) | 1 (Herbicidal ratio of 5% or more and less than 20%) | melting point: 176 to 178 °C
CSc1nnc2c(C(=O)Nc3nnc(C)o3)ccc(C(F)(F)F)n12 [1-018, N-(5-Methyl-1,3,4-oxadiazol-2-yl)-3-(methylthio)-5-(trifluoromethyl)-[1,2,4]triazol o[4,3-a]pyridine-8-carboxamide] | 0 (Herbicidal ratio of 5% or less (almost no effect)) | 1 (Herbicidal ratio of 5% or more and less than 20%) | 0 (Herbicidal ratio of 5% or less (almost no effect)) | 0 (Herbicidal ratio of 5% or less (almost no effect)) | 4 (Herbicidal ratio of 70% or more and less than 90%) | 4 (Herbicidal ratio of 70% or more and less than 90%) | 0 (Herbicidal ratio of 5% or less (almost no effect)) | melting point: 230 to 233 °C
CC(C)c1nnc2c(C(=O)Nc3nnco3)ccc(C(F)(F)F)n12 [1-050] | 4 (Herbicidal ratio of 70% or more and less than 90%) | 5 (Herbicidal ratio of 90% or more (almost completely withered)) | 3 (Herbicidal ratio of 40% or more and less than 70%) | 5 (Herbicidal ratio of 90% or more (almost completely withered)) | 5 (Herbicidal ratio of 90% or more (almost completely withered)) | 5 (Herbicidal ratio of 90% or more (almost completely withered)) | 2 (Herbicidal ratio of 20% or more and less than 40%) | –
CC(C)c1nnc2c(C(=O)Nc3nnc(C4CC4)o3)ccc(C(F)(F)F)n12 [1-051] | 1 (Herbicidal ratio of 5% or more and less than 20%) | 3 (Herbicidal ratio of 40% or more and less than 70%) | 0 (Herbicidal ratio of 5% or less (almost no effect)) | 1 (Herbicidal ratio of 5% or more and less than 20%) | 3 (Herbicidal ratio of 40% or more and less than 70%) | 3 (Herbicidal ratio of 40% or more and less than 70%) | 0 (Herbicidal ratio of 5% or less (almost no effect)) | –
COCCc1nnc(NC(=O)c2ccc(C(F)(F)F)n3c(C(C)C)nnc23)o1 [1-052] | 2 (Herbicidal ratio of 20% or more and less than 40%) | 3 (Herbicidal ratio of 40% or more and less than 70%) | 0 (Herbicidal ratio of 5% or less (almost no effect)) | 3 (Herbicidal ratio of 40% or more and less than 70%) | 2 (Herbicidal ratio of 20% or more and less than 40%) | 4 (Herbicidal ratio of 70% or more and less than 90%) | 0 (Herbicidal ratio of 5% or less (almost no effect)) | –
Cc1nnc(NC(=O)c2ccc(C(F)F)n3c(C(C)C)nnc23)o1 [1-053] | 3 (Herbicidal ratio of 40% or more and less than 70%) | 3 (Herbicidal ratio of 40% or more and less than 70%) | 0 (Herbicidal ratio of 5% or less (almost no effect)) | 1 (Herbicidal ratio of 5% or more and less than 20%) | 2 (Herbicidal ratio of 20% or more and less than 40%) | 4 (Herbicidal ratio of 70% or more and less than 90%) | 0 (Herbicidal ratio of 5% or less (almost no effect)) | –
Cc1cc(C(=O)Nc2nnnn2C)c2nnc(C(C)C)n2c1C(F)(F)F [2-050] | – | – | – | – | – | – | – | d (directly sowed Oryza sativa) effect on crop grade ([1]; foliage application, 192 g/ha): 3 (Herbicidal ratio of 40% or more and less than 70%); f (Beta vulgaris ssp. vulgaris) effect on crop grade ([2]; foliage application, 192 g/ha): 3 (Herbicidal ratio of 40% or more and less than 70%); c (Glycine max) effect on crop grade (Glycine max; foliage application, 192 g/ha): 0 (Herbicidal ratio of 5% or less (almost no effect)); g (Brassica campestris L.) effect on crop grade (Brassica campestris L.; foliage application, 192 g/ha): 0 (Herbicidal ratio of 5% or less (almost no effect)); P (Stellaria media) herbicidal effect grade (Stellaria media; foliage application, 192 g/ha): 3 (Herbicidal ratio of 40% or more and less than 70%); N (Amaranthus retroflexus) herbicidal effect grade (Amaranthus retroflexus; foliage application, 192 g/ha): 2 (Herbicidal ratio of 20% or more and less than 40%); a: transplanted Oryza sativa (effect on crop grade) ([3]; Application herbicide amount 192 g/ha): 2 (Herbicidal ratio of 20% or more and less than 40%)
CCN(C)c1nnc2c(C(=O)Nc3nnnn3C)ccc(C(F)(F)F)n12 [2-088] | – | – | – | – | – | – | – | effect on crop, d (directly sowed Oryza sativa) [1, 5]: 4 (Herbicidal ratio of 70% or more and less than 90%); effect on crop, f (Beta vulgaris ssp. vulgaris) [2, 5]: 5 (Herbicidal ratio of 90% or more (almost completely withered)); effect on crop, c (Glycine max) (Glycine max; [5]): 0 (Herbicidal ratio of 5% or less (almost no effect)); effect on crop, g (Brassica campestris L.) (Brassica campestris L.; [5]): 5 (Herbicidal ratio of 90% or more (almost completely withered)); herbicidal effect, P (Stellaria media) (Stellaria media; [5]): 5 (Herbicidal ratio of 90% or more (almost completely withered)); herbicidal effect, N (Amaranthus retroflexus) (Amaranthus retroflexus; [5]): 5 (Herbicidal ratio of 90% or more (almost completely withered)); a: transplanted Oryza sativa (effect on crop grade) ([3]; Application herbicide amount 141 g/ha): 3 (Herbicidal ratio of 40% or more and less than 70%)
